Test [1] deals with human Class I PI3 kinase β (Homo sapiens (Human), UniProt P42338). The test is described as follows: PI3-Kinase Promega ADP-Glo Max assay, β isoform. The following applies: 40 nM kinase, 3 mM ATP, 500 uM diC8-PtdInsP; read-out: Promega β PI3K IC50. In kind it is biochemical. Background: ADP-Glo turns the ADP formed in a reaction into a luminescent signal.
Procedure: Promega ADP-Glo Max assay kit (Cat. No. V7002) was utilized to determine IC50 values for α, β, δ and γ isoforms of human Class I PI3 kinases (Millipore). […] Reactions were incubated at room temperature for 2 hours followed by addition of 25 uL of stop solution. After a 40-minute incubation at room temperature, 50 uL of Promega detection mix was added followed by incubation for 1 hour at room temperature. Plates were then read on Envision plate reader in luminescence mode. Data was converted to % inhibition using the following equation below:
Test [2] addresses human Class I PI3 kinase γ (Homo sapiens (Human), UniProt P48736). The test can be described thus: PI3-Kinase Promega ADP-Glo Max assay, γ isoform. In kind it is biochemical. Particulars: 40 nM kinase, 3 mM ATP, 500 uM diC8-PtdInsP; read-out: Promega γ PI3K IC50. Here is the method:
Promega ADP-Glo Max assay kit (Cat. No. V7002) was utilized to determine IC50 values for α, β, δ and γ isoforms of human Class I PI3 kinases (Millipore). Samples of kinase (20 nM α or δ, 40 nM β or γ isoform) were incubated with compound for 15 minutes at room temperature in reaction buffer (15 mM HEPES pH 7.4, 20 mM NaCl, 1 mM EGTA, 0.02% Tween 20, 10 mM MgCl2, 0.2 mg/mL bovine-γ-globulins) followed by addition of ATP/diC8-PtdInsP mixture to give final concentrations of 3 mM ATP and 500 uM diC8-PtdInsP. Reactions were incubated at room temperature for 2 hours followed by addition of 25 uL of stop solution. After a 40-minute incubation at room temperature, 50 uL of Promega detection mix was added followed by incubation for 1 hour at room temperature. Plates were then read on Envision plate reader in luminescence mode. Data was converted to % inhibition using the following equation below:
[formula] where S is the sample luminescence, Pos is a positive control without added PI3K, Neg is the negative control without added compound. Data was then plotted as % inhibition vs compound concentration.
Certain compounds provided herein were tested in PI3-Kinase Promega Assay using procedures as described above to determine IC50 values for α, β, δ and/or γ isoforms.

Test [3] deals with p110 δ (RAJI cells) (Homo sapiens (Human), UniProt O00329). The test can be described thus: PI3K-δ selective cellular assay: phospho-AKT in anti-human IgM stimulated RAJI cells. In kind it is cell-based. The following applies: serum-starved RAJI cells stimulated with anti-human IgM. The source says:
A compound's ability in selectively inhibiting PI3K-δ can be assessed using RAJI cells, i.e., B lymphocyte cells derived from lymphoma patients. Briefly, serum-starved RAJI cells are stimulated with anti-human IgM, thereby causing signaling through the B-cell receptors, as described in, for example, He et al., Leukemia Research (2009) 33: 798-802. B-cell receptor signaling is important for the activation, differentiation, and survival of B cells and certain B-cell derived cancers. Reduction of phospho-AKT is indicative of compounds that may inhibit B-cell proliferation and function in certain diseases. […] Certain compounds provided herein were tested in RAJI cell model using procedures as described above.

The target in test [4] is human Class I PI3 kinase δ (Homo sapiens (Human), UniProt O00329). The test is described as follows: PI3-Kinase Promega ADP-Glo Max assay, δ isoform. Particulars: 20 nM kinase, 3 mM ATP, 500 uM diC8-PtdInsP; read-out: Promega δ PI3K IC50. In kind it is biochemical.
Procedure: (§1) Promega ADP-Glo Max assay kit (Cat. No. V7002) was utilized to determine IC50 values for α, β, δ and γ isoforms of human Class I PI3 kinases (Millipore). […] Reactions were incubated at room temperature for 2 hours followed by addition of 25 uL of stop solution. After a 40-minute incubation at room temperature, 50 uL of Promega detection mix was added followed by incubation for 1 hour at room temperature. Plates were then read on Envision plate reader in luminescence mode. Data was converted to % inhibition using the following equation below: [formula] where S is the sample luminescence, Pos is a positive control without added PI3K, Neg is the negative control without added compound. Data was then plotted as % inhibition vs compound concentration.
In test [5] the target is p110 γ (RAW264.7 cells) (Mus musculus (Mouse), UniProt Q9JHG7). The test can be described thus: PI3K-γ selective cellular assay: phospho-AKT in C5a stimulated RAW264.7 macrophages. Particulars: serum-starved RAW264.7 cells stimulated with C5a. In kind it is cell-based. On the procedure:
Certain compounds provided herein were tested in RAW 264.7 cell model using procedures as described above.

For test [6], the target named is human Class I PI3 kinase α (Homo sapiens (Human), UniProt P42336). The test is described as follows: PI3-Kinase Promega ADP-Glo Max assay, α isoform. In kind it is biochemical. The following applies: 20 nM kinase, 3 mM ATP, 500 uM diC8-PtdInsP; read-out: Promega α PI3K IC50.
Procedure: as §1

The term IC50 denotes the midpoint of a concentration-inhibition curve.

human Class I PI3 kinase γ, sequence (P48736 whole entry, canonical isoform): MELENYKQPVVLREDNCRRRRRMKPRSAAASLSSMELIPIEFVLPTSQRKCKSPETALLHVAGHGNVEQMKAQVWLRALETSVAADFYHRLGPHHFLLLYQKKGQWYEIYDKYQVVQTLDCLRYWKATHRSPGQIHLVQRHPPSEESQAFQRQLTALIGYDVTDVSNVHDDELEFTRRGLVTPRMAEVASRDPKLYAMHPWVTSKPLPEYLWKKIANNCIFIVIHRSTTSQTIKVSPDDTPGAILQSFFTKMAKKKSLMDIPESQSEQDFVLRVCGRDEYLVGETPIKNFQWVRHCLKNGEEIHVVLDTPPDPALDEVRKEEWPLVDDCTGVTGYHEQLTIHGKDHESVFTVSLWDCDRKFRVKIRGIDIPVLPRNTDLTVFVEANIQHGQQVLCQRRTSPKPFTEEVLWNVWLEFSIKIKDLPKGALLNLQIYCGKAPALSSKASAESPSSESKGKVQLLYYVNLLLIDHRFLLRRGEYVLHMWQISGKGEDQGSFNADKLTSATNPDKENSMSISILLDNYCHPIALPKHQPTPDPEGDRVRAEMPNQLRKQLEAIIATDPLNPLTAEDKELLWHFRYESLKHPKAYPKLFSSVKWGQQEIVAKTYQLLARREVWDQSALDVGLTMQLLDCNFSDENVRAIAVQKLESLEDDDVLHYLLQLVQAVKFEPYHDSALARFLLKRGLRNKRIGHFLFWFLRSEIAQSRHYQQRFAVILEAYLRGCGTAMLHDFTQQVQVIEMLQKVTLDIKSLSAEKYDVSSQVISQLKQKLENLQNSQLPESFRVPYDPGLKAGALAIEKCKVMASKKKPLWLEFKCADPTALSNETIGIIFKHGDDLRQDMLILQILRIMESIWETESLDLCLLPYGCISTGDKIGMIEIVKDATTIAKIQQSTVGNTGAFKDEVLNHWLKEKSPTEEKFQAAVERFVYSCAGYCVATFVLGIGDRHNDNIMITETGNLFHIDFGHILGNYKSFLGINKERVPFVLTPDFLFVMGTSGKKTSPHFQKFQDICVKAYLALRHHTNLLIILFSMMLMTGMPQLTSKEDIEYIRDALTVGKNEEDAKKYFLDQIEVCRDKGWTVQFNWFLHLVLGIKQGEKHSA
human Class I PI3 kinase β, sequence (P42338 whole entry, looked up, canonical isoform): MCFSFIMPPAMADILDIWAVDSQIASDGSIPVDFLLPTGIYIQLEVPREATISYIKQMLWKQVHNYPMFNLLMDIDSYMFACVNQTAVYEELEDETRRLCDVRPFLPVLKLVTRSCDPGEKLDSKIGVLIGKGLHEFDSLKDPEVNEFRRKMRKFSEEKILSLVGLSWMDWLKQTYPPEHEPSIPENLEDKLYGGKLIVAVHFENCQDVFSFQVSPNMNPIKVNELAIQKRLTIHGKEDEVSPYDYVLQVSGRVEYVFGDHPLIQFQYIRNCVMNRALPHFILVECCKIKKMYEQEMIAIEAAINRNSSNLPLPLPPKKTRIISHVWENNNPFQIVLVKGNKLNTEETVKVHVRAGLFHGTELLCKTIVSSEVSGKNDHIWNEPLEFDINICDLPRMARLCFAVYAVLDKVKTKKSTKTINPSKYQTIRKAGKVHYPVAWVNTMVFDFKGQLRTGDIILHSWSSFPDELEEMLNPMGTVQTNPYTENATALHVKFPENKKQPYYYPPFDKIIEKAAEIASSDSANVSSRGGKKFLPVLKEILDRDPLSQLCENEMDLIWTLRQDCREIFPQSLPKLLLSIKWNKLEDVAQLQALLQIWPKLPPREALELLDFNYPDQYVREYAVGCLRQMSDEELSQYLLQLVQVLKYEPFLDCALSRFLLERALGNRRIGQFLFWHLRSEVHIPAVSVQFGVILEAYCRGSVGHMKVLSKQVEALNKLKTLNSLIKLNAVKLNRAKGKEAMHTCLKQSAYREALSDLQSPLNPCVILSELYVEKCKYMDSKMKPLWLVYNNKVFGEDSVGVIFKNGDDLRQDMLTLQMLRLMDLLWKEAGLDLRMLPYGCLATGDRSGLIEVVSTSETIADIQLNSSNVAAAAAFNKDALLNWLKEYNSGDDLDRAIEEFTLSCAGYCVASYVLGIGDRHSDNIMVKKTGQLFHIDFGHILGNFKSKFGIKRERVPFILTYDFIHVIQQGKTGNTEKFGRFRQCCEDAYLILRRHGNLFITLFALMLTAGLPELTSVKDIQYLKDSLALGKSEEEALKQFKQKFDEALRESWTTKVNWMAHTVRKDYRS
human Class I PI3 kinase β, sequence (P27986 whole entry partner, looked up, canonical isoform): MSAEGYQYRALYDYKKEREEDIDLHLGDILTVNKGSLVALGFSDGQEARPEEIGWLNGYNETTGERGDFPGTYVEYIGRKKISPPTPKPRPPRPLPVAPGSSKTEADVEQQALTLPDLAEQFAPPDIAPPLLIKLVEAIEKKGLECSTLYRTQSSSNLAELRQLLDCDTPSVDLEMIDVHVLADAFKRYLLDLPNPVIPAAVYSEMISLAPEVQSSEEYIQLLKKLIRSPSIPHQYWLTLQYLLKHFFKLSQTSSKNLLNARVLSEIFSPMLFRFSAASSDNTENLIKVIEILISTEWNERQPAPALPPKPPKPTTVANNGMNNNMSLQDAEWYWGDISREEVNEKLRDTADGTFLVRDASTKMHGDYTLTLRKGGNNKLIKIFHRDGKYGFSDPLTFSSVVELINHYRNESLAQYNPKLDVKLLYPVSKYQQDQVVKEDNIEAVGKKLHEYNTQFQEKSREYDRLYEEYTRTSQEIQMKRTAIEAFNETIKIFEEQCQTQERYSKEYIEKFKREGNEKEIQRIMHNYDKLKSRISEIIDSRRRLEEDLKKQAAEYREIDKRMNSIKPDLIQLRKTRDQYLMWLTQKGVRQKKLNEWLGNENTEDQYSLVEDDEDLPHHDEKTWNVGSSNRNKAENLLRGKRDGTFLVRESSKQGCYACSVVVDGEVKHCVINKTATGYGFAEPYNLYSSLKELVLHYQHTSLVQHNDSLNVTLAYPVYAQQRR
p110 γ (RAW264.7 cells), sequence (Q9JHG7 whole entry): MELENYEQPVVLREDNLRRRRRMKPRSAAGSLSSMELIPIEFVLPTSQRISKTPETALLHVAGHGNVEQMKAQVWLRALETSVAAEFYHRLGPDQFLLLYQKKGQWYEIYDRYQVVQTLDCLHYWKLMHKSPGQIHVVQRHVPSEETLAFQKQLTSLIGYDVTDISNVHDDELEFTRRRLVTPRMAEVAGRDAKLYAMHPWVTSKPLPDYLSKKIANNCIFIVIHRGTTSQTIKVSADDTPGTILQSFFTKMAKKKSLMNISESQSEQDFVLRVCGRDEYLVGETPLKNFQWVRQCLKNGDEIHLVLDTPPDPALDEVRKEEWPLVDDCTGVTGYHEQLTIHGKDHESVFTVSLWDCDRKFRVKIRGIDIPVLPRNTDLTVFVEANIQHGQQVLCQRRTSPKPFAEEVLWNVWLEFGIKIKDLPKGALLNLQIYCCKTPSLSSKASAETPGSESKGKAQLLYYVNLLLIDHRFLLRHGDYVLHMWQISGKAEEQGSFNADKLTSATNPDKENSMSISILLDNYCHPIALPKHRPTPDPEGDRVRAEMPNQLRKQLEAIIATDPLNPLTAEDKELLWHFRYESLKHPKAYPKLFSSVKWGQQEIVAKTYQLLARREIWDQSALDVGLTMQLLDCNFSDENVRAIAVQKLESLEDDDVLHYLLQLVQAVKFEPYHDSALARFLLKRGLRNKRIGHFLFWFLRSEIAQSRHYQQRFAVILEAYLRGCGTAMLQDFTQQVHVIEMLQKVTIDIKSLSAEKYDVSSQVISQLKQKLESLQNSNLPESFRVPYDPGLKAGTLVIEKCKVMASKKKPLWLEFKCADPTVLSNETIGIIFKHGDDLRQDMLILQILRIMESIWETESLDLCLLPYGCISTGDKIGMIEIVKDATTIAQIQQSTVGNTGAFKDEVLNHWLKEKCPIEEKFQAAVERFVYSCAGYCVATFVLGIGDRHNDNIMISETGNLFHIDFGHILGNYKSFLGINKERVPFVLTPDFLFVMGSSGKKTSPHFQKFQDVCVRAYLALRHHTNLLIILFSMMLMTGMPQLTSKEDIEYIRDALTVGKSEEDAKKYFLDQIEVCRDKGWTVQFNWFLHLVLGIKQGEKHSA
p110 δ (RAJI cells), sequence (O00329 whole entry): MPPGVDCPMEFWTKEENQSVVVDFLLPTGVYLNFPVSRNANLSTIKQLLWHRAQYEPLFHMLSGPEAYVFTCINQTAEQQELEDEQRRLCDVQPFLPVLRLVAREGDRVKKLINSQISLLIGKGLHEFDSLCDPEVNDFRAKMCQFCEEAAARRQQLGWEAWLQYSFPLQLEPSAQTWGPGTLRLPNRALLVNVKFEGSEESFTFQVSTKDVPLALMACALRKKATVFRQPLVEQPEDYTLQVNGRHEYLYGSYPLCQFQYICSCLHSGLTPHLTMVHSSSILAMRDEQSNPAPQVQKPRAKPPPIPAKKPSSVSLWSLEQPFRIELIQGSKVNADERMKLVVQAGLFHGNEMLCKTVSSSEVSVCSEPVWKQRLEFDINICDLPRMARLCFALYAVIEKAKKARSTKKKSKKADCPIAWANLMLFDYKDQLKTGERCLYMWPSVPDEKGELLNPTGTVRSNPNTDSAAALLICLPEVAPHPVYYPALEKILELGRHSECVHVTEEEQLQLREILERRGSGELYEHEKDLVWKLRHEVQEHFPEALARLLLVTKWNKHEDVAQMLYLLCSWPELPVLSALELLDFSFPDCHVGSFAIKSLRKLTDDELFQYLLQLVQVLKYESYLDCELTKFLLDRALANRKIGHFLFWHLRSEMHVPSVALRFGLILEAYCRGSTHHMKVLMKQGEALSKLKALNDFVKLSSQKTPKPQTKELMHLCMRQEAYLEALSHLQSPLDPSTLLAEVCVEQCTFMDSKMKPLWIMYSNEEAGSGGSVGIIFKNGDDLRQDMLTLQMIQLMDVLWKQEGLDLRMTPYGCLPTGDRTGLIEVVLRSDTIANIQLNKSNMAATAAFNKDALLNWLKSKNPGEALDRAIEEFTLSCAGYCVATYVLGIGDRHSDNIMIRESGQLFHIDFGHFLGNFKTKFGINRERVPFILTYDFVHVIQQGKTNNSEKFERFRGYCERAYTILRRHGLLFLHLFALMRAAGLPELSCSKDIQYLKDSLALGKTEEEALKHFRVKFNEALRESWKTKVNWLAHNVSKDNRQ
p110 δ (RAJI cells), sequence (P27986 whole entry partner): as the sequence (P27986 whole entry partner, looked up, canonical isoform) above

`C[C@H](NC(=O)c1c(N)nn2cccnc12)c1cc2cccc(Cl)c2c(=O)n1CCc1nnn[nH]1` [Compound 16]: the IC50 in test [1] is 1000 to 10000 nM; in test [2], 10 to 100 nM; in test [3], 1000 to 10000 nM; in test [4], 1000 to 10000 nM; in test [5], 500 to 1000 nM; in test [6], 1000 to 10000 nM.
`C[C@H](NC(=O)c1c(N)nn2cccnc12)c1nc2cccc(Cl)c2c(=O)n1-c1ccc(F)cc1` [Compound 45]: the half-inhibitory concentration (IC50) in test [1] lay in the range of 1000 to 10000 nM; in test [2], 10 to 100 nM; in test [3] it was 10 to 100 nM; in test [4], 1000 to 10000 nM; in test [5], 1 to 10 nM; in test [6], 1000 to 10000 nM.
Consider `Cc1noc(CCn2c([C@H](C)NC(=O)c3c(N)nn4cccnc34)cc3cccc(Cl)c3c2=O)n1` [Compound 18], for which the IC50 in test [1] was 1000 to 10000 nM; in test [2], 1000 to 10000 nM; in test [3] it was 10 to 100 nM; in test [4], 1000 to 10000 nM; in test [5] it was 100 to 500 nM; in test [6], 1000 to 10000 nM.
Consider `CNS(=O)(=O)CCn1c([C@H](C)NC(=O)c2c(N)nn3cccnc23)cc2cccc(Cl)c2c1=O` [Compound 54], for which the IC50 in test [1] lay within 100 to 500 nM; in test [2], 10 to 100 nM; in test [3], 10 to 100 nM; in test [4] it was 100 to 500 nM; in test [5], 10 to 100 nM; in test [6], 1000 to 10000 nM.
`CC(=O)Cc1cccc2nc([C@H](C)NC(=O)c3c(N)nn4cccnc34)n(-c3ccccc3)c(=O)c12` [Compound 89]: the IC50 in test [1] lay within 1000 to 10000 nM; in test [2] it was 500 to 1000 nM; in test [3], 100 to 500 nM; in test [4] it was 500 to 1000 nM; in test [5], 10 to 100 nM; in test [6] it was 1000 to 10000 nM.
For `C[C@H](NC(=O)c1c(N)nn2cccnc12)c1cc2cccc(Cl)c2c(=O)n1C1CC(NS(C)(=O)=O)C1` (stereo partly drawn) [Compound 72], the IC50 in test [1] was 100 to 500 nM; in test [2], 1000 to 10000 nM; in test [3] it was 10 to 100 nM; in test [4] it was 1000 to 10000 nM; in test [5] it was 100 to 500 nM; in test [6], 1000 to 10000 nM.
As for `C[C@H](NC(=O)c1c(N)nn2cccnc12)c1cc2cccc(Cl)c2c(=O)n1C1CCC1` [Compound 71], the IC50 in test [1] was 500 to 1000 nM; in test [2], 1000 to 10000 nM; in test [3] it was 10 to 100 nM; in test [4], 1000 to 10000 nM; in test [5] it was 10 to 100 nM; in test [6], 1000 to 10000 nM.
`C[C@H](NC(=O)c1c(N)nn2cccnc12)c1cc2cccc(OCc3cnn(C)c3)c2c(=O)n1-c1ccccc1` [Compound 67]: the IC50 was 1000 to 10000 nM in test [1]; 500 to 1000 nM in test [2]; 1000 to 10000 nM in test [3]; 1000 to 10000 nM in test [4]; 10 to 100 nM in test [5]; 1000 to 10000 nM in test [6].
Take `C#CCCn1c([C@H](C)NC(=O)c2c(N)nn3cccnc23)cc2cccc(Cl)c2c1=O` [Compound 62]: the IC50 was 500 to 1000 nM in test [1]; 500 to 1000 nM in test [2]; 100 to 500 nM in test [3]; 1000 to 10000 nM in test [4]; 10 to 100 nM in test [5]; 1000 to 10000 nM in test [6].
On to `C[C@H](NC(=O)c1c(N)nn2cccnc12)c1cc2cccc(Cl)c2c(=O)n1CCc1ccccc1` [Compound 15], for which the IC50 in test [1] is 1000 to 10000 nM; in test [2], 1000 to 10000 nM; in test [3], 10 to 100 nM; in test [4] it was 1000 to 10000 nM; in test [5] it was 100 to 500 nM; in test [6], 1000 to 10000 nM.
On to `C[C@H](NC(=O)c1c(N)nn2cccnc12)c1cc2cccc(Cl)c2c(=O)n1-c1ccc(O)cc1` [Compound 70], for which the IC50 in test [1] is 1 to 10 nM; in test [2], 10 to 100 nM; in test [3] it was 1 to 10 nM; in test [4], 100 to 500 nM; in test [5], 10 to 100 nM; in test [6], 1000 to 10000 nM.
Consider `C[C@H](NC(=O)c1c(N)nn2cccnc12)c1cc2cccc(-c3cnn(CC(F)(F)F)c3)c2c(=O)n1-c1ccccc1` [Compound 50], for which the IC50 fell in the range of 1000 to 10000 nM in test [1]; 100 to 500 nM in test [2]; 100 to 500 nM in test [3]; 1000 to 10000 nM in test [4]; 10 to 100 nM in test [5]; 1000 to 10000 nM in test [6].
Turning to `C[C@H](NC(=O)c1nccnc1N)c1nc2cccc(Cl)c2c(=O)n1-c1ccc(F)cc1` [Compound 46], the IC50 is 1000 to 10000 nM in test [1]; 100 to 500 nM in test [2]; 1 to 10 nM in test [3]; 1000 to 10000 nM in test [4]; 10 to 100 nM in test [5]; 1000 to 10000 nM in test [6].
